How the values were obtained:
[1] = tested on: hematopoietic progenitor cells (HPCs); assay: Circulating CFU-C assay on PB MNCs (mobilized HPCs); type: in vivo, mouse
Experimental: (§1) To study the role of the plasminogen proteinase system with its plasminogen activators tPA and uPA, and active plasmin in stem/progenitor cell mobilization, mice lacking plasminogen (Plg^−/−), tPA (tPA^−/−), uPA (uPA^−/−) and both activators (tPA^−/−uPA^−/−) were used.^(17, 18) Age- and sex-matched mice were kept in IVC cages. Mobilization was induced either via a single sublethal injection i.v. of the myeloablative agent 5-fluorouracil (5-FU, 200-250 mg/kg), or via administration s.c. of recombinant human G-CSF (Filgrastim, Amgen, 200 μg/kg/d) for five consecutive days.^(12) Peripheral blood (PB) samples were obtained by retro-orbital bleeding under light anesthesia. Full blood counts were determined on the Abbott Cell Dyn 1300 hemocytometer. The number of mobilized hematopoietic progenitor cells (HPCs) in the circulation was determined via methylcellulose-based CFU-C assays (MethoCult, Stem Cell Technologies), per 10^5 peripheral blood mononuclear cells (PB MNCs).^(12) The number of mobilized hematopoietic stem cells (HSCs) in the circulation was quantified via splenic colony-forming assays (CFU-S), and evaluated for long-term engraftment via transplantation into lethally irradiated syngeneic wild-type recipients (9.5 Gy total body irradiation). […]
Wild-type mice and mice lacking Plg, both tPA and uPA, tPA, uPA, uPAR, PAI-1, α2AP, MMP-2 (kind gift from S. Itohara), MMP-3 (kind gift from J. Mudgett), MMP-9, MMP-12 (kind gift from S. Shapiro), and TIMP-1 (obtained by courtesy of P. Soloway) were used, and housed in barrier cages (individually ventilated) (Heymans et al. (1999), Nat. Med. 5:1135-42). […] Peripheral blood was repetitively sampled by retro-orbital puncture under light anesthesia, and full blood counts (EDTA buffered) were determined on a hemocytometer (Abbott Cell Dyn 1300). Peripheral blood smears were stained using Giemsa-May-Grunwald and at least 200 cells were analyzed. […]

[2] = tested on: hematopoietic stem cells (HSCs); assay: Splenic colony-forming assay CFU-S (mobilized HSCs); type: in vivo, mouse; settings: WT mice
Experimental: as §1

HSCs = assay: Transplantation of mobilized PB MNCs into lethally irradiated WT recipients, survival; type: in vivo, mouse; settings: donors WT mice treated with G-CSF and agent
Experimental: as §1

circulating WBCs = assay: Circulating WBC counts (full blood counts) during mobilization; type: in vivo, mouse; settings: WT mice
Experimental: as §1

BM MNCs (HPCs) = assay: Chemotaxis transwell assay, migrated HPCs scored as CFU-Cs; type: cell-based, mouse; settings: factor in bottom well, overnight incubation; GM-CSF 100 ng/ml
Experimental: (§2) Mononuclear cells (MNCs) were prepared via Lympholiter-M (Cedarlane) and density centrifugation. For CFU-C assays, bone marrow cells (5×10^4), or PB MNCs (1×10^5 or 5×10^5) were plated in 35 mm dishes (Stem Cell Technologies) using methylcellulose supplemented with growth factors (MethoCult, Stem Cell Technologies), and colonies were blindly scored after seven and thirteen days, respectively, using an inverted microscope (Luttun et al. (2002), Nat. Med. 8:831-40). […] After five weeks of culture, cells were trypsinized, counted, plated in MethoCult, and CFU-Cs were scored after nine days. […] For CFU-S assays, lethal total body irradiation (9.0 to 9.5 Gy), and transplantation of mobilized PB MNCs (1 to 1.5×10^5) were performed in syngeneic recipients, survival was monitored or splenic colonies were blindly scored after twelve days using a dissection microscope. For bone marrow proliferation index, bone marrow cells from treated mice were plated in 96-well plates, CellTiter96 (Promega) was added, and repetitive colorimetric readings were performed at OD 490 nm. […] After overnight incubation, the migrated non-adherent cells in the bottom wells were collected, counted, plated in MethoCult and CFU-Cs were scored after twelve days.

BM cells = assay: BM proliferation index; type: in vivo, mouse; settings: G-CSF-treated, N=8
Experimental: In contrast, HSC translocation and HPC expansion in the bone marrow was completely abolished in G-CSF-treated Plg^−/− mice (FIG. 1, Panels j and k). […] Thus, plasminogen is required for stem/progenitor cell expansion during mobilization.
Mononuclear cells (MNCs) were prepared via Lympholiter-M (Cedarlane) and density centrifugation. For CFU-C assays, bone marrow cells (5×10^4), or PB MNCs (1×10^5 or 5×10^5) were plated in 35 mm dishes (Stem Cell Technologies) using methylcellulose supplemented with growth factors (MethoCult, Stem Cell Technologies), and colonies were blindly scored after seven and thirteen days, respectively, using an inverted microscope (Luttun et al. (2002), Nat. Med. 8:831-40). […] After five weeks of culture, cells were trypsinized, counted, plated in MethoCult, and CFU-Cs were scored after nine days. […] For CFU-S assays, lethal total body irradiation (9.0 to 9.5 Gy), and transplantation of mobilized PB MNCs (1 to 1.5×10^5) were performed in syngeneic recipients, survival was monitored or splenic colonies were blindly scored after twelve days using a dissection microscope. For bone marrow proliferation index, bone marrow cells from treated mice were plated in 96-well plates, CellTiter96 (Promega) was added, and repetitive colorimetric readings were performed at OD 490 nm. […]

HSCs in the BM = assay: HSCs in the BM, LTC-IC assay on AFT024 stromal feeder layers; type: in vivo, mouse; settings: WT mice, after two days of treatment
Experimental: as §2

tPA = assay: In vitro clot lysis with BM plasma samples; type: in vivo, mouse; settings: N=4
From the text: Compared to WT or tPA^−/− mice, uPA^−/− mice had increased mortality and delayed hematopoietic recovery (FIG. 2, Panels b and c). […] Moreover, uPA deficiency reduced the number of BM HSCs (Sca1^+cKit^+) and HPCs (Sca1^+) after 5-FU. Thus, uPA is the responsible plasminogen activator, generating plasmin during 5-FU-induced stem cell mobilization. After G-CSF treatment, the levels of active tPA, but not uPA, increased in the BM plasma, when measured by casein zymography. […] To assess whether the specific up-regulation of tPA in response to G-CSF was functionally relevant, we determined whether tPA^−/− mice were capable of mobilizing stem/progenitor cells in response to G-CSF. […]
BM extracellular fluid (BM plasma) from mice was obtained as described previously (Petit et al. (2002), Nat. Immunol. 3:687-94). […] Murine sKitL and SDF1α protein levels were quantified using commercial available ELISA (R&D Systems, Abingdon, UK). Murine plasminogen, and murine and human suPAR were quantified by home-made ELISA (Heymans et al. (1999), Nat. Med. 5:1135-42; Sier et al. (2004), Thromb. Haemost. 91:403-11). […] MMP-2, MMP-9, and MMP-12 activities were measured using gelatin-zymography, uPA and MMP-3 activities were measured using casein-zymography, as described previously (Heymans et al. (1999), Nat. Med. 5:1135-42). […]

HPCs in the BM = assay: CFU-Cs (HPCs) in the BM; type: in vivo, mouse; settings: WT mice, after two days of treatment
Experimental: as §2

sKitL = sKitL levels in BM plasma (ELISA); type: in vivo, mouse; settings: WT mice, after G-CSF
Experimental: BM extracellular fluid (BM plasma) from mice was obtained as described previously (Petit et al. (2002), Nat. Immunol. 3:687-94). BM plasma from healthy volunteers was obtained by using the first 10 ml of collection via puncture in the iliac crest under local anesthesia, and immediate anti-coagulation with EDTA. Protein extraction on BM cells was performed as described (Heymans et al. (1999), Nat. Med. 5:1135-42). Murine sKitL and SDF1α protein levels were quantified using commercial available ELISA (R&D Systems, Abingdon, UK). Murine plasminogen, and murine and human suPAR were quantified by home-made ELISA (Heymans et al. (1999), Nat. Med. 5:1135-42; Sier et al. (2004), Thromb. Haemost. 91:403-11). Lyophilized pertussis toxin was obtained from List Laboratories. MMP-2, MMP-9, and MMP-12 activities were measured using gelatin-zymography, uPA and MMP-3 activities were measured using casein-zymography, as described previously (Heymans et al. (1999), Nat. Med. 5:1135-42). Samples from gene-deficient mice were used as negative controls. Plasmin activity of BM plasma or cells (pericellular activity) was measured using substrate colorimetry (S2403), as described previously (Heymans et al. (1999), Nat. Med. 5:1135-42). Fibrinolytic activity was measured using a modified fluorescent-based in vitro clot lysis assay (Heymans et al. (1999), Nat. Med. 5:1135-42). Western blotting was performed on non-reduced samples, which were neutralized with a cocktail of protease inhibitors (Complete Inhibitor, Roche). ECM components/fragments were detected with antibodies against mouse fibronectin and laminin (Sigma), and human D1D2D3 and D2D3 (Andolfo et al. (1999), Thromb. Haemost. 88:298-306), secondary HRP-labeled antibodies (DAKO), and ECL detection system (Amersham Pharmacia).

[3] = G-CSF in combination with agent for five days, compared to G-CSF alone
[4] = G-CSF plus drug for five days, compared to control vehicle

pertussis toxin
mobilization of HPCs ([1]; uPAR−/− mice, single i.v. bolus of 500 ng, after five days): efficiently mobilized

tenecteplase
enhanced mobilization of HPCs ([1]; WT mice, G-CSF in combination with agent for five days, compared to G-CSF alone): 65% | enhanced mobilization of HSCs [2, 3]: 155% | survival of lethally irradiated WT recipient mice after transplantation of mobilized cells (HSCs): significantly increased | enhanced mobilization of WBCs (circulating WBCs; [3]): 87%

NC[C@H]1CC[C@H](C(=O)O)CC1 [exacyl, tranexamic acid]
reduction of G-CSF-induced mobilization of HPCs ([1]; WT mice, G-CSF plus drug for five days, compared to control vehicle): 55% | reduction of G-CSF-induced mobilization of HSCs [2, 4]: 49% | reduction of G-CSF-induced mobilization of WBCs (circulating WBCs; [4]): 37%

GM-CSF: recombinant human GM-CSF (R&D systems), positive control in chemotaxis assay
HPCs in transwell (BM MNCs (HPCs)): 1363±323

B1: G-CSF: recombinant human G-CSF (Filgrastim, Amgen) (protein, chains of the INN, looked up)
chain: MTPLGPASSLPQSFLLKCLEQVRKIQGDGAALQEKLCATYKLCHPEELVLLGHSLGIPWAPLSSCPSQALQLAGCLSQLHSGLFLYQGLLQALEGISPELGPTLDTLQLDVADFATTIWQQMEELGMAPALQPTQGAMPAFASAFQRRAGGVLVASHLQSFLEVSYRVLRHLAQP
BM proliferation index (percent of proliferating BM cells in control mice) (BM cells; Plg−/− mice): 73±8% | BM proliferation index (percent of proliferating BM cells in control mice) (BM cells; WT mice): 167±14% | reduction of the number of HSCs in the bone marrow (HSCs in the BM): 65% | in vitro clot lysis, percentage of a positive standard (tPA; BM plasma of G-CSF-treated WT mice): 79±2% | in vitro clot lysis, percentage of a positive standard (tPA; BM plasma of G-CSF-treated tPA−/− mice): 58±2% | increase of the number of HPCs in the bone marrow (HPCs in the BM): 44% | sKitL levels in the BM plasma (sKitL): not increased
